Earlier results on 2 compounds are cited in PMC10707982, “Solubility and Thermodynamics Data of Cabozantinib Malate in Various Aqueous Solutions of Dimethyl Sulfoxide at Different Temperatures” (Molecules, 2023).

Details of the series: method as in doi:10.1016/j.molliq.2020.115146. The note with it: neat solvent; cited from earlier work.

With `C[S+](C)[O-]` [DMSO, dimethyl sulfoxide], the “HSP of neat solvent (δ1, δ2)” value is 23.60 MPa^1/2.

For `O` [H2O, water], the “HSP of neat solvent (δ1, δ2)” value is recorded as 47.80 MPa^1/2.
